{
  "source": "ChEMBL document CHEMBL1130123",
  "about": "“Optimization of 3-(1H-indazol-3-ylmethyl)-1,5-benzodiazepines as potent, orally active CCK-A agonists” (J Med Chem, 1997)",
  "key": {"[1]": {"experiment": "Maximum concentration at an intraduodenal dose of 5.2 mg/kg in rat", "format": "ADME, organism-based", "set-up": "dose 5.2 mg/kg, route intraduodenal", "details": "in vivo; call rule not given here"}, "[2]": {"experiment": "Total body clearance at an intravenous dose of 5.2 mg/kg in rat", "format": "ADME, organism-based", "set-up": "dose 5.2 mg/kg, route intravenous", "details": "in vivo"}, "[3]": {"experiment": "Half life period at an intravenous dose of 5.2 mg/kg in rat", "format": "ADME, organism-based", "set-up": "dose 5.2 mg/kg, route intravenous", "details": "in vivo"}, "[4]": {"experiment": "Oral bioavailability in Long-Evans rats at an intraduodenal dose of 5.2 mg/kg", "format": "ADME, organism-based", "details": "rat, in vivo, other: intraduodenal"}, "[5]": {"experiment": "Volume of distribution at steady state at an intravenous dose of 5.2 mg/kg in rat", "format": "ADME, organism-based", "set-up": "dose 5.2 mg/kg, route intravenous", "details": "in vivo, read-out: Vss"}, "[6]": {"experiment": "Oral bioavailability in Long-Evans rats at an intravenous dose of 5.2 mg/kg; Not active", "format": "ADME, organism-based", "details": "rat, in vivo"}, "[7]": {"experiment": "Maximum concentration at an intravenous dose of 5.2 mg/kg", "format": "ADME, organism-based", "set-up": "dose 5.2 mg/kg, route intravenous", "details": "rat, in vivo"}, "[8]": {"test_system": "Mus musculus", "experiment": "Maximal response at 1 nmol/kg peroral dose", "format": "functional"}},
  "data": [
    {"smiles": "COc1ccc(N(C(=O)CN2C(=O)C(C)(Cc3n[nH]c4ccccc34)C(=O)N(c3ccccc3)c3ccccc32)C(C)C)cc1", "note": "(stereo not drawn)", "values": [
      {"measurement": "Cmax", "setting": "[1]", "value": 30, "unit": "ng/mL"},
      {"measurement": "clearance", "setting": "[2]", "value": 30, "unit": "mL/min/kg"},
      {"measurement": "half-life", "setting": "[3]", "value": 3.9, "unit": "h"},
      {"measurement": "bioavailability", "setting": "[4]", "value": 15, "unit": "%"},
      {"measurement": "Vd", "setting": "[5]", "value": 4.31, "unit": "L/kg"},
      {"measurement": "F", "setting": "[6]", "value": "Not Active"},
      {"measurement": "Cmax", "setting": "[7]", "value": 3390, "unit": "ng/mL"},
      {"measurement": "Max", "setting": "[8]", "value": 28, "unit": "%"}
    ]}
  ]
}
